Structures can show the parent of a compound that is named as a salt. Each block holds one molecule with its values, some of them ahead of it.
Legend:
N18-RE-105 cell [1] = experiment: Test for inhibition of BSO toxicity to neurocyte (LDH release); assay type: cell-based, hybridoma of mouse neuroblastoma and rat retinal neurocyte; conditions: for EC50: BSO 500 μM, 24 hours; for cytoprotective action to BSO toxicity in neurocyte: result in words
Procedure: (2) Test for inhibition of BSO toxicity to neurocyte (neurocyte protective action against cytotoxicity accompanied by decrease of amount of intracellular glutathione)
The culture of neurocyte N18-RE-105, addition of the test compound, and determination of lactate dehydrogenase (LDH) were carried out in the manner as described in (1) above. BSO was added at the concentration of 500 μM.

N18-RE-105 cell [2] = experiment: Test for inhibition of glutamic acid toxicity to neurocyte (LDH release); assay type: cell-based, hybridoma of mouse neuroblastoma and rat retinal neurocyte; conditions: for EC50: 10 mM glutamic acid, 24 hours; for cytoprotective action to glutamic acid toxicity in neurocyte: result in words
Procedure: Neuron 2, 1547 (1989) and J. Pharmacol. Exp. […] The dihydrophenazinecarboxylic acid derivatives of the invention were examined in the action to the glutamic acid-induced cell death. […] Hybridoma cells were plated at 6.25×10^3 cells/cm^2. on 96 well microplate in Dalbecco's modified MEM containing 10% FBS (fetal bovine serum) and HAT (hypoxanthine 0.1 mM, aminopterin 40 nM, thymidine 0.14 mM, Sigma Chem., Co.). […] After the addition of glutamic acid, the culture was maintained for further 24 hours. Then, the activity of lactate dehydrogenase (LDH) contained in the cells and the medium was determined. The LDH releasing ratio was calculated using the below-mentioned equation to examine the glutamic acid toxicity. LDH releasing ratio=[LDH activity in medium/(LDH activity in cells and LDH activity in medium)]×100

ddY strain male mice = experiment: Acute toxicity, intravenous, mice; assay type: in vivo; conditions: 5 mg, intravenous injection
Procedure: The compound of the invention (ethyl 7-benzoyl-5,10-dihydro-1-phenazinecarboxylate obtained in Example 1) was administered to ddY strain male mice (weight: 23 to 27 g) in a dose of 5 mg by intravenous injection.

hippocampal cells = experiment: Test for inhibition of glutamic acid toxicity to hippocampal cells in primary culture (LDH); assay type: cell-based; conditions: hippocampal cell, rat fetus, 1 mM glutamic acid, 48 hours
Excerpt: 1) Preparation of hippocampal cells (from rat fetus in primary culture) A pregnant rat (18 days pregnancy) was anesthetized by Pentobarbital sodium. Its abdomen was sterilized using 83% ethanol and treated to take its fetus out. The whole brain was taken out from the fetus under stereomicroscopical observation. From the brain, its hippocampal portion was taken out. The hippocampal portion was cut into small pieces using a knife. The procedures for taking the hippocampal portion out and cutting the portion into small pieces were performed in a Hanks buffer solution (4° C.) without Ca^2+ and Mg^2+. The pieces of hippocampus were treated with 0.25% trypsin/0.01% DNase I solution at 37° C. for 30 minutes. After the addition of dialyzed FBS at the concentration of 20%, the treated specimen was recovered by centrifugal separation and suspended in DMEM containing GMS-A obtained from GIBCO (S1 culture medium). The specimen was gently treated by a pipet to give a cell suspension. […] 2) Determination of activity (Lactate dehydrogenase (LDH) method) The cytoprotective action of the test compound was determined by measuring activity of LDH released from the dead cells and activity of LDH in the living cells. […] After the culturing procedure was complete, the activity of lactate dehydrogenase was determined in the manner described in 1) above.

[3] = system: rat whole brain homogenate; experiment: Test for inhibition of production of peroxidized lipid in rat whole brain homogenate (TBA method); assay type: biochemical; conditions: 10^-4 M, iron-ascorbic acid, 37° C., one hour
Excerpt: (4) Test for inhibition of production of peroxidized lipid in rat whole brain homogenate
From the rat which had been fed with vitamin E deficient food for 11 weeks, a whole brain was taken out and frozen in liquid nitrogen. After the frozen whole brain was pulverized to give a powder, it was homogenized by Dounce type homogenizer. The homogenate was subjected to centrifugal separation at 180×g for 10 minuets, and the supernatant was recovered. The recovered supernatant was employed as the whole brain homogenate. The reaction of lipid peroxidation was initiated by stimulation using iron-ascorbic acid. The peroxidized lipid was quantitatively analyzed by the thiobarbituric acid (TBA) method. In more detail, 200 μL of the whole brain homogenate (protein content: 12.5 mg/mL), 50 μL of ADP (2 mg/mL), 50 μL of FeSO4 (0.5 mM), 50 μL of ascorbic acid (12 mM), and 50 μL of the test compound were added to 100 μL of 0.2M Tris-HCl buffer solution. The mixture was incubated at 37° C. for one hour. After the incubation was complete, 50 μL of 0.5% butylhydroxytoluene/ethanol solution, 250 μL of 8.1% SDS (sodium dodecylsulfate) solution, 1,750 μL of 20% acetic acid, and 1,500 μL of 0.8% TBA solution were added to the incubated mixture. The resulting mixture was boiled for one hour. […] The separated supernatant was subjected to measurement of absorbance at 535 nm.

free radical = conditions: cited from earlier work; for antioxidant property: J. Antibiotics, 48, 1378 (1995) and PCT WO96/22996; for free radical scavenger (anti-oxidant): J. Nat. Prod., 56, 1255(1993)
glutamic acid toxicity = conditions: J. Antibiotics, 48, 1378 (1995) and PCT WO96/22996; cited from earlier work
[4] = Stability at room temperature under atmospheric conditions; assay type: physicochemical

SMILES: CCOC(=O)c1cccc2c1Nc1ccc(C(=O)c3ccccc3)cc1N2C(=O)OC [Comparative, Ethyl 7-benzoyl-5,10-dihydro-5-methoxycarbonyl-1-phenazinecarboxylate]
- EC50 (N18-RE-105 cell [1]): > 1000 nM
- cytoprotective action to BSO toxicity in neurocyte (N18-RE-105 cell [1]): no cytoprotective action
- EC50 (N18-RE-105 cell [2]): > 1000 nM
- cytoprotective action to glutamic acid toxicity in neurocyte (N18-RE-105 cell [2]): no cytoprotective action

SMILES: CCOC(=O)c1cccc2c1Nc1ccc(C(=O)c3ccccc3)cc1N2 [Compound 1, Ethyl 7-benzoyl-5,10-dihydro-1-phenazinecarboxylate]
- death (acute toxicity) (ddY strain male mice): No death was observed
- EC50 (N18-RE-105 cell [1]): 6 nM
- EC50 (N18-RE-105 cell [2]): 3.3 nM

SMILES: CCOC(=O)c1cccc2c1Nc1ccc(C(=O)c3ccccc3)cc1N2CC=C(C)C [Compound 2, Ethyl 7-benzoyl-5,10-dihydro-5-(3-methyl-2-butenyl)-1-phenazinecarboxylate]
- EC50 (N18-RE-105 cell [1]): 96.2 nM
- EC25 (hippocampal cells): 12 nM
- Inhibition of lipid peroxidation (% per control value) [3]: 60.2%
- EC50 (N18-RE-105 cell [2]): 14.5 nM

SMILES: CCOC(=O)c1cccc2c1Nc1ccc(C(=O)c3ccccc3)cc1N2Cc1ccccc1 [Compound 3, Ethyl 7-benzoyl-5-benzyl-5,10-dihydro-1-phenazinecarboxylate]
- EC50 (N18-RE-105 cell [1]): 72 nM
- EC50 (N18-RE-105 cell [2]): 40.7 nM

SMILES: CCOC(=O)c1cccc2c1Nc1ccc(C(=O)c3ccccc3)cc1N2C [Compound 4, Ethyl 7-benzoyl-5,10-dihydro-5-methyl-1-phenazinecarboxylate]
- EC50 (N18-RE-105 cell [1]): 90 nM
- EC50 (N18-RE-105 cell [2]): 58 nM

SMILES: CC(C)=CCN1c2cc(C(=O)c3ccccc3)ccc2Nc2c(C(=O)OCCCN(C)C)cccc21 [Compound 5, 3-(Dimethylamino)propyl 7-benzoyl-5,10-dihydro-5-(3-methyl-2-butenyl)-1-phenazinecarboxylate hydrochloride]
- EC25 (hippocampal cells): 57.5 nM

SMILES: O=c1c2ccccc2[se]n1-c1ccccc1 [Ebselen, ebselen]
- EC50 (N18-RE-105 cell [1]): 7500 nM
- cytoprotective action to BSO toxicity in neurocyte (N18-RE-105 cell [1]): no cytoprotective action
- EC50 (N18-RE-105 cell [2]): 10100 nM
- cytoprotective action to glutamic acid toxicity in neurocyte (N18-RE-105 cell [2]): no cytoprotective action

SMILES: CC(CNC(=O)c1cccnc1)NC(=O)c1cccnc1 (stereo not shown) [Nicarven, nicaraven]
- EC50 (N18-RE-105 cell [1]): > 100000 nM
- cytoprotective action to BSO toxicity in neurocyte (N18-RE-105 cell [1]): no cytoprotective action
- EC50 (N18-RE-105 cell [2]): > 100000 nM
- cytoprotective action to glutamic acid toxicity in neurocyte (N18-RE-105 cell [2]): no cytoprotective action

SMILES: CC(C)=CCN1c2cc(C(=O)c3ccccc3)ccc2Nc2c(C(=O)OC3O[C@@H](C)[C@H](O)[C@@H](O)[C@H]3O)cccc21 (stereo partly shown) [aestivophoenin A]
- antioxidant property (free radical): shows antioxidant property
- inhibition of glutamic acid toxicity (glutamic acid toxicity): inhibit glutamic acid toxicity

SMILES: CC(C)=CCc1cc(C(=O)c2ccccc2)cc2c1Nc1c(C(=O)OC3O[C@@H](C)[C@H](O)[C@@H](O)[C@H]3O)cccc1N2CC=C(C)C (stereo partly shown) [aestivophoenin B]
- antioxidant property (free radical): shows antioxidant property
- inhibition of glutamic acid toxicity (glutamic acid toxicity): inhibit glutamic acid toxicity

SMILES: CC(C)=CCC/C(C)=C/CN1c2cc(C(=O)c3ccccc3)ccc2Nc2c(C(=O)O)cc(C(=O)c3ccccc3)cc21 [benthophoenin]
- free radical scavenger (anti-oxidant) (free radical): employable as a free radical scavenger (anti-oxidant)

- stability [4]: unstable at room temperature
SMILES: CCOC(=O)c1cccc2c1Nc1ccccc1N2 [ethyl 5,10-dihydro-1-phenazinecarboxylate]

SMILES: COC(=O)c1cc(C(=O)c2ccccc2)cc2c1Nc1ccc(C(=O)c3ccccc3)cc1N2C/C=C(\C)CCC=C(C)C [its methyl ester]
- free radical scavenger (anti-oxidant) (free radical): employable as a free radical scavenger (anti-oxidant)
